Experimental data taken from patent US20240270821A1, “GIP/GLP1/GCG TRI-RECEPTOR AGONISTS AND USES THEREOF” (priority 2023, published 2024).
Like-named read-outs stand apart in the source and are kept apart here. Starred links: 1 amine or outer side, 2 acyl side, 3 side chain; linkers in the order of their positions; H or OH if unused. Non-standard residues stand in square brackets, D forms with d. Groups on a side chain read outwards from the residue. No end group written: not given here. *: point of attachment. C20 diacid = O=C(O)CCCCCCCCCCCCCCCCCCC(=O)*; C18 diacid = O=C(O)CCCCCCCCCCCCCCCCC(=O)*; αMePhe(2-F) = C[C@](N)(Cc1ccccc1F)C(=O)O; γGlu = O=C(O)[C@H](CCC(=O)[*:2])N[*:1]; αMe4Pal = C[C@](N)(Cc1ccncc1)C(=O)O; αMeY = C[C@](N)(Cc1ccc(O)cc1)C(=O)O; 4Pal = N[C@@H](Cc1ccncc1)C(=O)O; αMeL = CC(C)C[C@](C)(N)C(=O)O; αMeS = C[C@](N)(CO)C(=O)O; Orn = NCCC[C@H](N)C(=O)O; AEEA = NCCOCCOCC(=O)O; Aib = CC(C)(N)C(=O)O

How the values were obtained:
Format in all cases: cell-based
[1] = target: T1, hGIPR (Homo sapiens, UniProt P48546); test: Functional cAMP activity in the presence of 1% HSA; settings: read-out: cAMP Rel EC50, hGIPR
T1 sequence (P48546 22-466): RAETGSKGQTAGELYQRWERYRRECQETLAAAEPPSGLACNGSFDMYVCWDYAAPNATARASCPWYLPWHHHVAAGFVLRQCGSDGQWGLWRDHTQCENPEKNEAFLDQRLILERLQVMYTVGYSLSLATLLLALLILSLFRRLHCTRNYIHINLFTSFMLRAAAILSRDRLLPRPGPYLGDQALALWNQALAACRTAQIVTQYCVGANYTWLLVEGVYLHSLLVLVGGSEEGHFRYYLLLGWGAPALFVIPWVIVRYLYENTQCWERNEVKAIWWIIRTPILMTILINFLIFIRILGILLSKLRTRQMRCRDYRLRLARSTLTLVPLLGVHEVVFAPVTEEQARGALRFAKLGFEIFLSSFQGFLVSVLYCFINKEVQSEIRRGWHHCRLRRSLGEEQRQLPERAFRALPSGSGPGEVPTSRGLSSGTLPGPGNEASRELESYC

[2] = target: hGcgR (Homo sapiens, UniProt P47871); test: Functional cAMP activation in the presence of 0.1% casein (no HSA); settings: read-out: Relative cAMP EC50, hGcgR;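 further: intracellular cAMP rise after 30 min at 37 °C, read by HTRF against a cAMP standard curve, scaled from buffer only (0%) to maximal control ligand response (100%)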
[3] = target: T2, hGLP-1R (Homo sapiens, UniProt P43220); test: Functional cAMP activity in the presence of 1% HSA; settings: read-out: cAMP Rel EC50, hGLP-1R
[4] = target: T1, hGIPR; test: Functional cAMP activation in the presence of 0.1% casein (no HSA); settings: read-out: Relative cAMP EC50, hGIPR;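 on Relative cAMP EC50, hGIPR: intracellular cAMP rise after 30 min at 37 °C read by HTRF against a standard curve, scaled between buffer alone (0%) and top control ligand concentration (100%), four-parameter fit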;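 on Relative cAMP EC50, hGLP-1R: intracellular cAMP rise after 30 min at 37 °C read by HTRF, normalized between buffer only (0%) and maximal control ligand (100%), four-parameter variable-slope fit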
[5] = target: T2, hGLP-1R; test: as above; settings: read-out: Relative cAMP EC50, hGLP-1R
[6] = target: human GcgR (Homo sapiens, UniProt P47871); test: Functional cAMP activity in the presence of 1% HSA; settings: read-out: cAMP Rel EC50, hGcgR
[7] = in the presence of 0.1% casein (no HSA), geometric mean
[8] = 0.1% casein, no HSA, geometric mean
[9] = HEK-293 clonal cell line, 1% HSA, geometric mean of relative EC50
[10] = in the presence of 0.1% casein (no HSA), geometric mean of relative EC50

T2 sequence (P43220 24-463): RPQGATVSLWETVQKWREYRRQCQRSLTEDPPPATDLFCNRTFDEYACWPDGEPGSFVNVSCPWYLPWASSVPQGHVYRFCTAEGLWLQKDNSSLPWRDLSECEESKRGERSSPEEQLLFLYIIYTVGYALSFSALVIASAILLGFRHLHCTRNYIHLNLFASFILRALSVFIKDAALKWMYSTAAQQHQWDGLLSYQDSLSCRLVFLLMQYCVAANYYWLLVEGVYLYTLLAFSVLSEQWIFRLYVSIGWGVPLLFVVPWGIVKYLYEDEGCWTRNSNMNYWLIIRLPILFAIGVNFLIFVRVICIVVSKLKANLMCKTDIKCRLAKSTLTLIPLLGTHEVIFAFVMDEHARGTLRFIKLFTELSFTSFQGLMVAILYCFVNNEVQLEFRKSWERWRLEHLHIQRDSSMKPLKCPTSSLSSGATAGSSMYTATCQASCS
Chain of human GcgR (P47871 26-477): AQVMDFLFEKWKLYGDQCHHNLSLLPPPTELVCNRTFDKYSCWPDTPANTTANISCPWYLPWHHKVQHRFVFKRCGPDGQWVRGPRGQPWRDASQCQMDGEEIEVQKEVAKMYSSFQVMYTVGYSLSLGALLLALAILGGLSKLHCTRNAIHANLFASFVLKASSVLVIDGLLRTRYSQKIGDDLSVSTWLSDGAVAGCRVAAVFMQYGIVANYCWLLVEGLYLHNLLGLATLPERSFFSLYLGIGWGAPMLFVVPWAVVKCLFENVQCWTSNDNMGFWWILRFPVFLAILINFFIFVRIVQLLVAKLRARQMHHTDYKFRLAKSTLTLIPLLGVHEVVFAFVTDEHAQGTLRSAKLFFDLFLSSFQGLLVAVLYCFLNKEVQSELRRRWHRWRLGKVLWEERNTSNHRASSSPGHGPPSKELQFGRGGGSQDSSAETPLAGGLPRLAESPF
Chain of hGcgR (P47871 26-477): as above

Compound | EC50 [1] [nM] | EC50 [2, 7] [nM] | EC50 [3] [nM] | EC50 [4, 7] [nM] | EC50 [5, 7] [nM] | EC50 [6] [nM] | EC50 [2] [nM] | EC50 [4] [nM] | EC50 [5] [nM] | other results
CC[C@H](C)[C@H](NC(=O)[C@H](CC(C)C)NC(=O)[C@H](Cc1ccc(O)cc1)NC(=O)[C@H](CCC(=O)O)NC(=O)[C@@H](NC(=O)[C@H](Cc1ccccc1)NC(=O)[C@H](CCC(=O)O)NC(=O)[C@](C)(Cc1ccncc1)NC(=O)[C@H](CCC(N)=O)NC(=O)[C@H](C)NC(=O)[C@H](CCCCNC(=O)CC[C@H](NC(=O)CC[C@H](NC(=O)CCCCCCCCCCCCCCCCC(=O)O)C(=O)O)C(=O)O)NC(=O)[C@H](CCCN)NC(=O)[C@H](CC(=O)O)NC(=O)[C@H](CC(C)C)NC(=O)[C@](C)(CC(C)C)NC(=O)[C@H](CCCN)NC(=O)[C@H](CO)NC(=O)[C@H](Cc1ccncc1)NC(=O)[C@H](CC(=O)O)NC(=O)[C@H](CO)NC(=O)[C@@H](NC(=O)[C@H](Cc1ccccc1)NC(=O)[C@@H](NC(=O)CNC(=O)[C@H](CCC(N)=O)NC(=O)C(C)(C)NC(=O)[C@@H](N)Cc1ccc(O)cc1)[C@@H](C)O)[C@@H](C)O)[C@@H](C)CC)C(=O)N[C@@H](C)C(=O)NCC(=O)NCC(=O)N1CCC[C@H]1C(=O)N[C@@H](CO)C(=O)N[C@@H](CO)C(=O)NCC(=O)N[C@@H](C)C(=O)N1CCC[C@H]1C(=O)N1CCC[C@H]1C(=O)N1CCC[C@H]1C(=O)N[C@@H](CO)C(=O)NCC(=O)N[C@@H](CO)C(=O)N[C@@H](CCC(=O)O)C(=O)N[C@@H](CCC(=O)O)C(N)=O [Example 1001] | 20 | 22.5 | 295 | 0.4 | 4.59 | 1170 |  |  |  | 
Y[Aib]QGT[αMePhe(2-F)]TSD[4Pal][αMeS]I[αMeL]LD[Orn]K([AEEA-γGlu-C18 diacid])AQ[αMe4Pal]EFI[dQ][αMeY]LIEGGPSSGAPPPSGS-NH2 [Example 1202] | 0.471 |  | 23.1 |  |  | 70.3 |  |  |  | EC50 [2, 8]: 0.5 nM; EC50 [4, 8]: 0.00635 nM; EC50 [5, 8]: 0.237 nM
Y[Aib]QGT[αMePhe(2-F)]TSD[4Pal][αMeS]I[αMeL]LD[Orn]K([AEEA-γGlu-C18 diacid])AA[Aib]EFI[dE][αMeY]LIEGGPSSGAPPPSGE-NH2 [Example 701] | 0.979 |  | 24.9 |  |  | 226 | 1.48 | 0.01 | 0.22 | 
Y[Aib]QGT[αMePhe(2-F)]TSD[4Pal][αMeS]ILLD[Orn]K([γGlu-γGlu-C18 diacid])AQ[Aib][Orn]FI[dE][αMeY]LQEGGPSSGEPPPEGAE-NH2 [Example 546] | 11.9 |  | 34.4 |  |  | 225 | 3.67 | 0.25 | 0.517 | 
H-Y[Aib]QGTFTSDFS[Orn][αMeL]LDKK([AEEA-γGlu-C18 diacid])AQ[Aib]AFIEWLLEGGHSSGAPPPSGH-NH2 [Example 269] | 21.9 | 7.69 | 428 | 0.288 | 3.23 | 1100 |  |  |  | 
Y[Aib]QGTFTSD[4Pal]S[Orn][αMeL]LD[Orn]K([γGlu-γGlu-C18 diacid])AQ[αMe4Pal]QFIE[αMeY]LIEGGPSSGAPPPSGSEE-NH2 [Example 972] | 30.4 | 4.19 | 327 | 0.34 | 2.05 | 660 |  |  |  | 
Y[Aib]QGT[αMePhe(2-F)]TSD[4Pal]SILLDKK([γGlu-γGlu-C18 diacid])AQ[Aib]AFIEYLQEGGPSSGAPPPSGTEE-NH2 [Example 580] | 6.29 |  | 55.3 |  |  | 922 | 7.27 | 0.0426 | 0.615 | 
H-Y[Aib]QGTFTSDFS[Orn][αMeL]LDKK([AEEA-γGlu-C18 diacid])AQ[Aib]AFIEWLLEGGESSGEPPPSGE-NH2 [Example 123] | 94.6 | 4.55 | 1500 | 0.531 | 4.82 | 1740 |  |  |  | 
CC[C@H](C)[C@H](NC(=O)[C@H](Cc1ccccc1)NC(=O)[C@H](CCCN)NC(=O)C(C)(C)NC(=O)[C@H](CCC(N)=O)NC(=O)[C@H](C)NC(=O)[C@H](CCCCNC(=O)CC[C@H](NC(=O)CNC(=O)CCCCCCCCCCCCCCCCC(=O)O)C(=O)O)NC(=O)[C@H](CCCN)NC(=O)[C@H](CC(=O)O)NC(=O)[C@H](CC(C)C)NC(=O)[C@](C)(CC(C)C)NC(=O)[C@@H](NC(=O)[C@](C)(CO)NC(=O)[C@H](Cc1ccncc1)NC(=O)[C@H](CC(=O)O)NC(=O)[C@H](CO)NC(=O)[C@@H](NC(=O)[C@](C)(Cc1ccccc1F)NC(=O)[C@@H](NC(=O)CNC(=O)[C@H](CCC(N)=O)NC(=O)C(C)(C)NC(=O)[C@@H](N)Cc1ccc(O)cc1)[C@@H](C)O)[C@@H](C)O)[C@@H](C)CC)C(=O)N[C@H](CCC(=O)O)C(=O)N[C@@](C)(Cc1ccc(O)cc1)C(=O)N[C@@H](CC(C)C)C(=O)N[C@@H](CCC(N)=O)C(=O)N[C@@H](CCC(=O)O)C(=O)NCC(=O)NCC(=O)N1CCC[C@H]1C(=O)N[C@@H](CO)C(=O)N[C@@H](CO)C(=O)NCC(=O)N[C@@H](CCC(=O)O)C(=O)N1CCC[C@H]1C(=O)N1CCC[C@H]1C(=O)N1CCC[C@H]1C(=O)N[C@@H](CCC(=O)O)C(=O)NCC(=O)N[C@H](C(=O)N[C@@H](CCC(=O)O)C(=O)N[C@@H](CCC(=O)O)C(N)=O)[C@@H](C)O [Example 658] |  |  |  |  |  |  |  |  |  | EC50 [1, 9]: 12 nM; EC50 [2, 10]: 1.05 nM; EC50 [3, 9]: 106 nM; EC50 [4, 10]: 0.0379 nM; EC50 [5, 10]: 0.34 nM; EC50 [6, 9]: 376 nM
H-Y[Aib]QGT[αMePhe(2-F)]TSD[4Pal]SI[αMeL]LDKK([γGlu-γGlu-C18 diacid])AQ[Aib]AFIEYLEEGGPSSGEPPPSGTGE-NH2 [Example 624] | 1.17 |  | 63.4 |  |  | 808 | 8.42 | 0.0222 | 0.95 | 
CC[C@H](C)[C@H](NC(=O)[C@H](Cc1ccccc1)NC(=O)[C@H](CCCN)NC(=O)C(C)(C)NC(=O)[C@H](CCC(N)=O)NC(=O)[C@H](C)NC(=O)[C@H](CCCCNC(=O)[C@H](CCC(=O)O)NC(=O)CC[C@H](NC(=O)CCCCCCCCCCCCCCCCC(=O)O)C(=O)O)NC(=O)[C@H](CCCN)NC(=O)[C@H](CC(=O)O)NC(=O)[C@H](CC(C)C)NC(=O)[C@](C)(CC(C)C)NC(=O)[C@@H](NC(=O)[C@](C)(CO)NC(=O)[C@H](Cc1ccncc1)NC(=O)[C@H](CC(=O)O)NC(=O)[C@H](CO)NC(=O)[C@@H](NC(=O)[C@](C)(Cc1ccccc1F)NC(=O)[C@@H](NC(=O)CNC(=O)[C@H](CCC(N)=O)NC(=O)C(C)(C)NC(=O)[C@@H](N)Cc1ccc(O)cc1)[C@@H](C)O)[C@@H](C)O)[C@@H](C)CC)C(=O)N[C@H](CCC(=O)O)C(=O)N[C@@](C)(Cc1ccc(O)cc1)C(=O)N[C@@H](CC(C)C)C(=O)N[C@@H](CCC(N)=O)C(=O)N[C@@H](CCC(=O)O)C(=O)NCC(=O)NCC(=O)N1CCC[C@H]1C(=O)N[C@@H](CO)C(=O)N[C@@H](CO)C(=O)NCC(=O)N[C@@H](CCC(=O)O)C(=O)N1CCC[C@H]1C(=O)N1CCC[C@H]1C(=O)N1CCC[C@H]1C(=O)N[C@@H](CCC(=O)O)C(=O)NCC(=O)N[C@H](C(=O)N[C@@H](CCC(=O)O)C(=O)N[C@@H](CCC(=O)O)C(=O)N[C@@H](CCC(=O)O)C(N)=O)[C@@H](C)O [Example 594] | 3.32 |  | 49.1 |  |  | 570 | 8.35 | 0.0541 | 0.561 | 
H-Y[Aib]QGTFTSDFS[Orn][αMeL]LDKK([AEEA-γGlu-C20 diacid])AQ[Aib]AFIEYLLAGGPSSGAPPPSGE-NH2 [Example 82] | 87.8 | 6.98 | 394 | 0.302 | 3.52 | 1070 |  |  |  | 
